{"source": "patent US20240336573A1", "about": "“COMPOUND FOR THE TREATMENT AND PROPHYLAXIS OF INFECTIOUS DISEASES” (Eberhard Karls Universität Tübingen Medizinische Fakultät, priority 2021, published 2024)", "target": "SurA (Escherichia coli, UniProt P0ABZ6)", "sequence (P0ABZ6 21-428)": "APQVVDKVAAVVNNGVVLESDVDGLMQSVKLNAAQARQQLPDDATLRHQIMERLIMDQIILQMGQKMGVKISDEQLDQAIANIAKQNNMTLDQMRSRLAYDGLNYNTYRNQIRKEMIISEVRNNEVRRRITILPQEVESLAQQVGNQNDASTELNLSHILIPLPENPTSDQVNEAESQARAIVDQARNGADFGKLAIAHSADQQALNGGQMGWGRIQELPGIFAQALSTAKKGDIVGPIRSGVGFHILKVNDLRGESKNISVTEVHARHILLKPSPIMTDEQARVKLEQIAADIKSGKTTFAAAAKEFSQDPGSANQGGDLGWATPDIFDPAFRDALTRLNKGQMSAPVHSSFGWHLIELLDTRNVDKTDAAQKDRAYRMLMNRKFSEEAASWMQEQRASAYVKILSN", "assay": "Luciferase-based SurA activity assay at the ELF (primary screen P1, dose response C2)", "type": "biochemical, E. coli", "excerpt": "The biological function of SurA is to bind and to keep outer membrane proteins that have reached the periplasm in an unfolded but folding-competent state. The inventors' assay is based on this interaction and uses firefly Luciferase (fLuc) as a non-native substrate. […] This is exploited in the assay (FIG. 3). The loss of tertiary structure of fLuc leads to the exposure of binding sites for SurA. It is known that SurA binds selectively to a special group of substrates. These substrates have in common the specific patterns of hydrophobic amino acids that are highly enriched in the beta strands of integral outer membrane proteins. These motifs are present in OMPs of all Gram-negative bacteria and in fLuc as well. Upon mild heat treatment of fLuc and its subsequent partial unfolding, fLuc is accepted as a substrate by SurA. Of note, these intermediates served as reporter substrates to determine the activity of a […] folding chaperone. […] This interaction remains stable upon temperature reduction. Next, the temperature of the assay is reduced to room temperature and luciferase activity is subsequently measured by addition of Luciferin and ATP. In conditions without SurA, fLuc will refold into its active conformation resulting in a luminescence signal.\nOf note, the SurA activity assay was performed similar at the ELF but with optimizations in regard of the higher throughput including the change of the plate format to 1536-wells. The SurA activity assay performed at the ELF contained the following steps (adapted from the QHL report provided by the ELF). First, SurA was thawed at RT and heat activated in a water bath. Next, the vial was taken out of the water bath and cooled down to RT for 30 min @ bench. Afterwards, the SurA concentration was adjusted in assay buffer to 2 μM. Noteworthy, the SurA solution was kept on ice. […] Finally, 2 μL substrate mix (180 μM Luciferin with 12 mM ATP) were added simultaneously to all wells using the Fluorometric Imaging Plate Reader (FLIPR) and the luminescence signal was measured immediately afterwards on the FLIPR (Gain 70,000). […]"}
{"smiles": "CN(C)c1ccc(-c2nc3cc(NC(=O)Cn4cc5ccccc5n4)ccc3[nH]2)cc1", "note": "[QHL-24]", "values": [{"measurement": "DRC (C2) pIC50", "setting": "7 concentration steps 20 μM to 27.4 nM, n=2", "value": 5.45}, {"measurement": "Primary assay (P1) % Effect", "setting": "ELF library screen, 1536-well", "value": 151, "unit": "%"}, {"measurement": "Primary assay (P1) Z-score", "setting": "ELF library screen, 1536-well", "value": 191.97}]}
